Source: patent US7737153B2, “Heteroaryloxy-substituted phenylaminopyrimidines as rho-kinase inhibitors” (Bayer Schering Pharma Aktiengesellschaft, priority 2002, dated 2010)

Tests used:
[1] = test system: isolated rings of the saphenous artery of rabbits; test: Vessel-relaxing action in vitro, phenylephrin-induced contractions of isolated saphenous artery rings; parameters: species or system rabbit; conditions: Oryctolagus cuniculus; contraction induced by 3×10^−8 g of phenylephrin/ml; concentration reducing control contraction by 50%
Procedure: (§1) The inhibition of the enzyme is investigated in an in vitro assay with recombinant Rho kinase II. The vessel-relaxing action is determined using phenylephrin-induced contractions of isolated rings of the saphenous artery of rabbits.
Vessel-Relaxing Action In Vitro
Individual 3-mm-wide rings of the isolated saphenous artery of rabbits are introduced into 5 ml organ baths with Krebs-Henseleit solution (37° C., gassed with carbogen). The vessel tone is monitored isometrically and registered. Contractions are induced by addition of 3×10^−8 g of phenylephrin/ml, which is washed out again after 4 min. After a number of control cycles, the rings are pre-incubated with the substance to be examined, with the dosage being increased for each further cycle, and the subsequent contraction is compared to the intensity of the last control contraction.

[2] = molecular target: T1, recombinant Rho kinase II (ROKα) (Homo sapiens, UniProt O75116); test: Inhibition of recombinant Rho kinase II (ROKα), 33P uptake into S6 substrate peptide; assay type: biochemical; conditions: 33P-ATP, S6 phosphate-acceptor peptide, 20 min at 37° C., vs solvent control
T1 construct: purchased Upstate Biotechnology
T1 sequence (O75116 whole entry): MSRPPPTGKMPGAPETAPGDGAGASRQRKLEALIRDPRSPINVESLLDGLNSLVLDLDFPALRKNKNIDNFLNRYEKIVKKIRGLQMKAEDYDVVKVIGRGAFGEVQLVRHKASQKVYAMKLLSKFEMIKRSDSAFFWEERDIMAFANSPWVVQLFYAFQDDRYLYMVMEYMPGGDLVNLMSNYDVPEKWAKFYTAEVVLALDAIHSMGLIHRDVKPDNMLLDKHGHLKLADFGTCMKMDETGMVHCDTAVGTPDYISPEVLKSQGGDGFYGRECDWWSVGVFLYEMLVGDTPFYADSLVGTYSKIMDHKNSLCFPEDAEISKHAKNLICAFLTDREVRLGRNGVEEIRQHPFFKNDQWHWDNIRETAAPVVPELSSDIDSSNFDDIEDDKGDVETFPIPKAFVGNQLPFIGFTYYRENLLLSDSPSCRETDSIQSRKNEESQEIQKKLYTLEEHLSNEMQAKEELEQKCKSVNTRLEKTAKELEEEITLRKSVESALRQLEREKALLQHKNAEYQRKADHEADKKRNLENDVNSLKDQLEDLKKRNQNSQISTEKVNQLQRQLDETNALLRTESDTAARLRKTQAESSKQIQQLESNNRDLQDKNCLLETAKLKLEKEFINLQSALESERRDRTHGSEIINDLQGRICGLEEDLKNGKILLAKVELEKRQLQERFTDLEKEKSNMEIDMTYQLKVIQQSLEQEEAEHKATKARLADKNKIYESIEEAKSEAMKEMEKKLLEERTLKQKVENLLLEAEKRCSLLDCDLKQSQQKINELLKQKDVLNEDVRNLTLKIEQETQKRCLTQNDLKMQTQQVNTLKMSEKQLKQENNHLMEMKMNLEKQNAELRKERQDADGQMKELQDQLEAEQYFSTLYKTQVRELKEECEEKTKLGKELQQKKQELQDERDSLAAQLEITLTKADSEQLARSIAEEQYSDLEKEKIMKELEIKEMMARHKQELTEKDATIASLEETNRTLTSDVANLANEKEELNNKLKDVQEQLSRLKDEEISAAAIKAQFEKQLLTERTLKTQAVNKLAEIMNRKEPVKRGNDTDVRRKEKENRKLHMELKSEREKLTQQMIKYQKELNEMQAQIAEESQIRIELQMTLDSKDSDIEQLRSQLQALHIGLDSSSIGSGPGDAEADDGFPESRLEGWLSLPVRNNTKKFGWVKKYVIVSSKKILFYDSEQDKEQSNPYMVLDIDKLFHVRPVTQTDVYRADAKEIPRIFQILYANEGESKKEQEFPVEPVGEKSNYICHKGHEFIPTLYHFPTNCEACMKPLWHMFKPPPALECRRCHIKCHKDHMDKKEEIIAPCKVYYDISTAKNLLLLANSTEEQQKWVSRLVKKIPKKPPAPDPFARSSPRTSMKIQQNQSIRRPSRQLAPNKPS
Procedure: as §1
Inhibition of Recombinant Rho Kinase II (ROKα)
The activity of Rho kinase is determined by the uptake of ^33P phosphate into a substrate peptide. To this end, commercially available Rho kinase II (Upstate Biotechnology) is pre-incubated at 37° C. in the presence of the S6 phosphate-acceptor peptide with the test substances or a solvent control for 10 min. The kinase reaction is then started by addition of ^33P-labelled ATP. After 20 min at 37° C., the reaction is stopped by addition of H3PO4. Aliquots are pipetted onto filters and the filters are washed and then covered with scintillator. The radioactivity of the ^33P-labelled peptides bound to the filter is measured in a Micro-Beta counter.

Row | IC50 [1] | IC50 [2] | SMILES
1 | 6800 nM | – | Cc1n[nH]c2cccc(Oc3ccc(Nc4cc(-c5ccncc5)nc(N)n4)cc3F)c12 [Example 1, N-[2-Amino-6-(4-pyridinyl)-4-pyrimidinyl]-N-{3-fluoro-4-[(3-methyl-1H-indazol-4-yl)oxy]phenyl}amine]
2 | 1020 nM | 20 nM | Nc1nc(Nc2ccc(Oc3ccc4[nH]ncc4c3)c(F)c2)cc(-c2ccncc2)n1 [Example 5, N-[2-Amino-6-(4-pyridinyl)-4-pyrimidinyl]-N-[3-fluoro-4-(1H-indazol-5-yloxy)-phenyl]amine]
3 | 4330 nM | 30 nM | Nc1nc(Nc2ccc(Oc3ccc4[nH]ncc4c3)c(Cl)c2)cc(-c2ccncc2)n1 [Example 6]
4 | 6700 nM | – | Nc1nc(Nc2ccc(Oc3ccc4cn[nH]c4c3)c(F)c2)cc(-c2ccncc2)n1 [Example 7]
5 | 350 nM | 6 nM | Nc1nc(Nc2ccc(Oc3ccc4[nH]ncc4c3)c(F)c2)cc(N2C[C@H]3CCCN[C@H]3C2)n1 [Example 11, 6-[(4aR,7aR)-Octahydro-6H-pyrrolo[3,4-b]pyridin-6-yl]-N-4-[3-fluoro-4-(1H-indazol-5-yloxy)phenyl]-2,4-pyrimidinediamine]
6 | 2700 nM | 55 nM | Nc1nc(Nc2ccc(Oc3ccc4[nH]ncc4c3)c(F)c2)cc(N2C[C@@H]3CCCN[C@@H]3C2)n1 [Example 12]
7 | 2000 nM | 9 nM | Nc1nc(Nc2ccc(Oc3ccc4[nH]ncc4c3)c(Cl)c2)cc(N2C[C@H]3CCCN[C@H]3C2)n1 [Example 13]
8 | – | 20 nM | Nc1nc(Nc2ccc(Oc3ccc4[nH]ncc4c3)c(Cl)c2)cc(N[C@@H]2CCCC[C@H]2N)n1 [Example 15]
9 | 6900 nM | 50 nM | Nc1nc(Nc2ccc(Oc3ccc4[nH]ncc4c3)c(F)c2)cc(N[C@@H]2CCCC[C@H]2N)n1 [Example 16]
10 | – | 43 nM | Nc1nc(Nc2ccc(Oc3ccc4[nH]ncc4c3)c(F)c2)cc(-c2ccccc2)n1 [Example 18, N-(2-Amino-6-phenyl-4-pyrimidinyl)-N-[3-fluoro-4-(1H-indazol-5-yloxy)phenyl]amine]
11 | 260 nM | 1 nM | CN(CCO)CC1CCN(c2cc(Nc3ccc(Oc4ccnc5[nH]ccc45)c(F)c3)nc(N)n2)C1 (centres unmarked) [Example 68]
12 | 150 nM | – | CC(C)(C)NCc1cc(Nc2ccc(Oc3ccnc4[nH]ccc34)c(F)c2)nc(N)n1 [Example 116]
13 | 80 nM | – | Nc1nc(CN2CCCCC2)cc(Nc2ccc(Oc3ccnc4[nH]ccc34)c(F)c2)n1 [Example 117, N^4-[3-Fluoro-4-(1H-pyrrolo[2,3-b]pyridin-4-yloxy)phenyl]-6-(piperidin-1-ylmethyl)-pyrimidine-2,4-diamine]
